Laboratory results reported in patent US10787423B2, “Piperazine and piperidine derivatives, their synthesis and use thereof in inhibiting VDAC oligomerization, apoptosis and mitochondria dysfunction” (THE NATIONAL INSTITUTE FOR BIOTECHNOLOGY IN THE NEGEV LTD., priority 2015, dated 2020).

What was measured:
[1] = molecular target: T1, purified rat VDAC1 (Rattus norvegicus, UniProt Q9Z2L0); assay: VDAC1 channel conductance in planar lipid bilayer; format: biochemical; details: for IC50 / Max Inhibition (maximal reduction in channel conductance): planar lipid bilayer, measured at +10 mV and −10 mV
T1 construct: from tissue; host or cells: rat liver mitochondria
T1 sequence (Q9Z2L0 whole entry): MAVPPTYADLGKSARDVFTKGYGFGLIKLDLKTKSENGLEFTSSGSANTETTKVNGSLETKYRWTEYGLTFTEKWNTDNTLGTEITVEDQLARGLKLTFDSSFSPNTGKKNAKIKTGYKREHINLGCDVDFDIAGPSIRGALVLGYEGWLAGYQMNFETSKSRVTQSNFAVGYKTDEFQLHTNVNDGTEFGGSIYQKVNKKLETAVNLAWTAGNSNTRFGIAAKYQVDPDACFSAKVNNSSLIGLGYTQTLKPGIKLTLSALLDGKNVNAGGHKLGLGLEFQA
Source text: The direct interaction between VDAC and the compounds of general Formulae (I), (Ia), (Ib), (Ic), (Id), (II) and (IIa), especially the specific compounds of Formulae 1, 2, 3, 10 and 11, may be measured by assessing VDAC channel conductance, following its reconstitution into a planar lipid bilayer (PLB). The compounds of the general Formulae (I), (Ia), (Ib), (Ic), (Id), (II) and (IIa), interact with VDAC and reduce its channel conductance. To obtain quantitative parameters of this interaction and derive a dissociation constant, e.g. a microscale thermophoresis (MST) interaction assay may be performed. In this manner, dissociation values are derived from the curves showing the affinity of the compounds of the invention to VDAC.
Briefly, rat liver mitochondria (5 mg/ml) in 10 mM Tris-HCl, pH 7.2, were incubated with 2% LDAO at 0° C. for 20 min, followed by centrifugation (30 min, 14,000 g) and the obtained supernatant was loaded onto a dry celite:hydroxyapatite (2:1) column. VDAC1 was eluted with a solution containing 2% LDAO, 10 mM Tris-HCl, pH 7.2, 50 mM NaCl, and 20 to 22 mM NaH2PO4, with VDAC1 detection by Coomassie blue staining. The VDAC1-containing fractions were dialyzed against 10 mM Tris-HCl, pH 7.2, and subjected to a second chromatography step on a carboxymethyl-cellulose (CMC) column from which VDAC1 was eluted with a solution containing 10 mM Tris-HCl, pH 7.2, 0.1% LDAO and 500 mM NaCl, detected as above. The VDAC1-containing fractions were collected and used for VDAC1 channel conductance and MST assays.
The reconstitution of purified rat VDAC1 into a planar lipid bilayer (PLB) and subsequent single and multiple channel current recordings and data analysis were carried out as follows. Briefly, the PLB was prepared from soybean asolectin dissolved in n-decane (30 mg/ml). Purified VDAC1 (1 ng) was added to the chamber defined as the cis side containing 1 M NaCl, 10 mM Hepes, pH 7.4. Currents were recorded under voltage-clamp using a Bilayer Clamp BC-535B amplifier (Warner Instrument, Hamden, Conn.). The currents, measured with respect to the trans side of the membrane (ground), were low-pass-filtered at 1 kHz and digitized online using a Digidata1440-interface board and pClampex 10.2 software (Axon Instruments, Union City, Calif.).
VDAC1 was purified as described above in Methods (VDAC1 purification). Purified VDAC1 was reconstituted into a planar lipid bilayer (PLB) membrane and currents through VDAC1, in response to a voltage steps from 0 to +10 mV, from 0 to −10 mV, from 0 to +40 mV, and from 0 to −40 mV, were recorded before and 15 min after the addition of 20 μM of the compound of Formula 3 (VBIT-12).
Solid circles indicate conductance without VBIT-12, open circles with 20 μM VBIT-12.
Further, the VDAC1 channel conductance was measured with the increasing concentrations of VBIT-12, or of compound of Formula 1 (VBIT-4). Concentration dependence of VBIT-12 reducing VDAC1 channel conductance was measured at +10 my and at −10 mV.

[2] = system: HeLa cells; assay: Selenite-induced cell death in HeLa cells, PI staining and flow cytometry; format: cell-based
Experimental: Cells, e.g. HeLa cells (2×10^5), untreated or treated with apoptosis-inducing reagents, were analyzed for apoptotic cell death using PI, annexin V-FITC and flow cytometer analysis. Cells were collected (1500×g for 10 min), washed, and resuspended in 200 μl binding buffer (10 mM HEPES/NaOH, pH 7.4, 140 mM NaCl, and 2.5 mM CaCl2). Annexin V-FITC was added according to the recommended Protocol (Enzo Life Sciences, Switzerland), and the cells were incubated in the dark for 15 min. Cells were then washed with binding buffer and resuspended in 200 μl binding buffer, to which PI was added immediately before flow cytometry analysis. At least 10,000 events were collected, recorded on a dot plot, and analyzed by the FACSCalibur™ flow cytometer software (BD Biosciences, Franklin Lakes, N.J.).
HeLa cells were incubated with varying concentrations (2-20 μM) of racemic compound of Formula 1 (VBIT-4) and of the enantiomers of compound of Formula 1 (VBIT-4-1 and VBIT-4-2) for 1 hour, and then with or without selenite (25 μM, 3 hours). Cells were harvested and assayed for apoptotic cell death, using PI staining and FACS analysis. The results shown in the FIG. 14b correspond to means±SD (n=3).
Cells (2.5 mg/ml) were washed with and resuspended in PBS, pH 8.3 and incubated with membrane-permeable cross-linker EGS (250 μM) at 30° C. for 15 min and then subjected to SDS-PAGE and immunoblotting using anti-VDAC1 antibodies. Several anti-VDAC1 antibody-labeled protein bands were obtained upon exposure to the apoptosis stimuli that are correspond to VDAC1 dimers, trimers, tetramers and multimers. Cell death as induced by selenite and inhibited by the compound of Formula 3 (VBIT-12) or compound of Formula 11 (DIV00781) is shown (FIG. 21B), with closed circles corresponding to the compound of Formula 3 and open circles corresponding to the compound of Formula 11. Cell death was analyzed using propidium iodide (PI) staining and flow cytometry.

| affinity to VDAC1 relative to VBIT-4 ([1]; from concentration dependence of channel conductance) | IC50 [1] | Max Inhibition (maximal reduction in channel conductance) [1] | SMILES | decrease in maximal channel conductance relative to VBIT-4 [1] | VDAC1 conductance in multi-channel experiments as function of voltage ([1]; 20 μM) | VDAC1 channel conductance ([1]; 20 μM, 15 min after addition, voltage steps 0 to ±10 mV and ±40 mV) | cell death as induced by selenite ([2]; 22 h with selenite 8 μM and increasing concentrations) | apoptotic cell death ([2]; 2-20 μM 1 hour, then selenite 25 μM 3 hours) |
| --- | --- | --- | --- | --- | --- | --- | --- | --- |
| higher affinity than VBIT-4 | 5 µM | 80% | O=C(O)CNC(=O)C1(Nc2ccccc2)CCN(Cc2cccc3ccccc23)CC1 [Formula 3] | higher decrease in the maximal channel conductance | stabilizing VDAC1 at a low conductance state at all voltages tested | Channel conductance was reduced and the channel was stabilized in a low conducting state | inhibited | – |
| – | 15 µM | 50% | O=C(CC(CO)N1CCN(c2ccc(OC(F)(F)F)cc2)CC1)Nc1ccc(Cl)cc1 (racemic) [Formula 1, N-(4-chlorophenyl)-4-hydroxy-3-(4-(4-(trifluoromethoxy)phenyl)-piperazin-1-yl)butanamide] | – | – | – | – | Inhibit Apoptotic Cell Death |
